# Test results reported in ChEMBL document CHEMBL3885861, “Open TG-GATES”.
# Species on record: Rattus norvegicus
# Assay: Open TG-GATES - Regimen: Single
# Assay type: toxicity, organism-based, Sprague-Dawley
# Parameters: regimen Single, gender Male, age 6 weeks
# Conditions: in vivo, po, route gavage; for TG / TP / gamma-GTP / ALP / AST / BUN / CRE / Ca / Cl / DBIL / GLC / IP / LDH / Na / PL / RALB / TBIL / TC / ALT: tissue Plasma; for APTT / Bas / Eos / Fbg / Hb / Ht / Lym / MCH / MCHC / MCV / Mono / PT / Plat / RBC / Ret / WBC / Neu: tissue Blood; for KIDNEY_L / KIDNEY_R / KIDNEY_TOTAL: tissue Kidney; for LIVER: tissue Liver
# [1] = 30 mg/kg, 3 h, dose level Middle
# [2] = 30 mg/kg, 6 h, dose level Middle
# [3] = 30 mg/kg, 9 h, dose level Middle
# [4] = 30 mg/kg, 24 h, dose level Middle
# [5] = 100 mg/kg, 3 h, dose level High
# [6] = 100 mg/kg, 6 h, dose level High
# [7] = 100 mg/kg, 9 h, dose level High
# [8] = 100 mg/kg, 24 h, dose level High
structure (smiles),measurement,setting,value
CC(=O)N1CCN(c2ccc(OCC3COC(Cn4ccnc4)(c4ccc(Cl)cc4Cl)O3)cc2)CC1 (stereo unspecified) [KETOCONAZOLE],TG,"10 mg/kg, 24 h, dose level Low",94.4 mg/dL
same,TP,"10 mg/kg, 24 h, dose level Low",5.5 g/dL
same,gamma-GTP,"10 mg/kg, 24 h, dose level Low",1.2 IU/L
same,TERMINAL_BW,[1],196.9 g
same,APTT,[1],21.2 s
same,Bas,[1],0%
same,Eos,[1],0.4%
same,Fbg,[1],275.6 mg/dL
same,Hb,[1],12.7 g/dL
same,Ht,[1],38.1%
same,Lym,[1],77.2%
same,MCH,[1],21.5 pg
same,MCHC,[1],33.2%
same,MCV,[1],64.6 fL
same,Mono,[1],1.6%
same,PT,[1],17.1 s
same,Plat,[1],121.6 x10_4/uL
same,RBC,[1],590.6 x10_4/ul
same,Ret,[1],8.6%
same,WBC,[1],75.8 x10_2/uL
same,KIDNEY_L,[1],0.9 g
same,KIDNEY_R,[1],0.9 g
same,KIDNEY_TOTAL,[1],1.8 g
same,LIVER,[1],9 g
same,ALP,[1],1671.8 IU/L
same,AST,[1],77 IU/L
same,BUN,[1],11.6 mg/dL
same,CRE,[1],0.2 mg/dL
same,Ca,[1],10.8 mg/dL
same,Cl,[1],105.2 meq/L
same,DBIL,[1],0 mg/dL
same,GLC,[1],188.2 mg/dL
same,IP,[1],8.6 mg/dL
same,LDH,[1],205.8 IU/L
same,Na,[1],141.2 meq/L
same,PL,[1],140.2 mg/dL
same,RALB,[1],2.9 g/dL
same,TBIL,[1],0.016 mg/dL
same,TC,[1],75.8 mg/dL
same,TG,[1],54 mg/dL
same,TP,[1],5.4 g/dL
same,gamma-GTP,[1],1.2 IU/L
same,TERMINAL_BW,[2],199.3 g
same,APTT,[2],21.8 s
same,Bas,[2],0%
same,Eos,[2],1%
same,Fbg,[2],304.4 mg/dL
same,Hb,[2],13.2 g/dL
same,Ht,[2],39.5%
same,Lym,[2],79.8%
same,MCH,[2],21.1 pg
same,MCHC,[2],33.5%
same,MCV,[2],63.1 fL
same,Mono,[2],2.2%
same,Neu,[2],15.8%
same,PT,[2],16.7 s
same,Plat,[2],126 x10_4/uL
same,RBC,[2],626.6 x10_4/ul
same,Ret,[2],7.8%
same,WBC,[2],67.8 x10_2/uL
same,KIDNEY_L,[2],0.9 g
same,KIDNEY_R,[2],0.9 g
same,KIDNEY_TOTAL,[2],1.9 g
same,LIVER,[2],8.4 g
same,ALP,[2],1604 IU/L
same,AST,[2],72.6 IU/L
same,BUN,[2],10.2 mg/dL
same,CRE,[2],0.2 mg/dL
same,Ca,[2],10.9 mg/dL
same,Cl,[2],105.6 meq/L
same,DBIL,[2],0 mg/dL
same,GLC,[2],179.4 mg/dL
same,IP,[2],9.4 mg/dL
same,LDH,[2],237.8 IU/L
same,Na,[2],142 meq/L
same,PL,[2],135 mg/dL
same,RALB,[2],3.1 g/dL
same,TBIL,[2],0.034 mg/dL
same,TC,[2],75 mg/dL
same,TG,[2],54.6 mg/dL
same,TP,[2],5.5 g/dL
same,gamma-GTP,[2],1.2 IU/L
same,TERMINAL_BW,[3],200.7 g
same,APTT,[3],21.4 s
same,Bas,[3],0%
same,Eos,[3],1%
same,Fbg,[3],287 mg/dL
same,Hb,[3],13.3 g/dL
same,Ht,[3],39.8%
same,Lym,[3],77.4%
same,MCH,[3],21.4 pg
same,MCHC,[3],33.4%
same,MCV,[3],63.9 fL
same,Mono,[3],1.4%
same,Neu,[3],19.8%
same,PT,[3],16.8 s
same,Plat,[3],127.9 x10_4/uL
same,RBC,[3],622.8 x10_4/ul
same,Ret,[3],8.5%
same,WBC,[3],52.8 x10_2/uL
same,KIDNEY_L,[3],1 g
same,KIDNEY_R,[3],1 g
same,KIDNEY_TOTAL,[3],1.9 g
same,LIVER,[3],8.3 g
same,ALP,[3],1563 IU/L
same,AST,[3],70.6 IU/L
same,BUN,[3],10.6 mg/dL
same,CRE,[3],0.2 mg/dL
same,Ca,[3],10.6 mg/dL
same,Cl,[3],105 meq/L
same,DBIL,[3],0.002 mg/dL
same,GLC,[3],176.2 mg/dL
same,IP,[3],10 mg/dL
same,LDH,[3],200.6 IU/L
same,Na,[3],141.2 meq/L
same,PL,[3],123.8 mg/dL
same,RALB,[3],3.1 g/dL
same,TBIL,[3],0.02 mg/dL
same,TC,[3],65.6 mg/dL
same,TG,[3],47 mg/dL
same,TP,[3],5.4 g/dL
same,gamma-GTP,[3],1.2 IU/L
same,TERMINAL_BW,[4],217.1 g
same,APTT,[4],20.6 s
same,Bas,[4],0%
same,Eos,[4],1%
same,Fbg,[4],320.8 mg/dL
same,Hb,[4],12.7 g/dL
same,Ht,[4],38.5%
same,Lym,[4],75.2%
same,MCH,[4],21.1 pg
same,MCHC,[4],33.1%
same,MCV,[4],64 fL
same,Mono,[4],1.6%
same,Neu,[4],20.6%
same,PT,[4],16.3 s
same,Plat,[4],121.7 x10_4/uL
same,RBC,[4],602 x10_4/ul
same,Ret,[4],7.3%
same,WBC,[4],66 x10_2/uL
same,KIDNEY_L,[4],1 g
same,KIDNEY_R,[4],1 g
same,KIDNEY_TOTAL,[4],2 g
same,LIVER,[4],10.7 g
same,ALP,[4],1798.8 IU/L
same,ALT,[4],49.4 IU/L
same,AST,[4],75 IU/L
same,BUN,[4],15.4 mg/dL
same,CRE,[4],0.2 mg/dL
same,Ca,[4],10.8 mg/dL
same,Cl,[4],106.2 meq/L
same,DBIL,[4],0 mg/dL
same,GLC,[4],179 mg/dL
same,IP,[4],7.5 mg/dL
same,LDH,[4],220 IU/L
same,Na,[4],142.4 meq/L
same,PL,[4],148.8 mg/dL
same,RALB,[4],3 g/dL
same,TBIL,[4],0.004 mg/dL
same,TC,[4],77.2 mg/dL
same,TG,[4],102.2 mg/dL
same,TP,[4],5.5 g/dL
same,gamma-GTP,[4],1.4 IU/L
same,TERMINAL_BW,[5],205.8 g
same,APTT,[5],21.1 s
same,Bas,[5],0%
same,Eos,[5],0.8%
same,Fbg,[5],280.8 mg/dL
same,Hb,[5],13 g/dL
same,Ht,[5],38.6%
same,Lym,[5],81.4%
same,MCH,[5],21.1 pg
same,MCHC,[5],33.5%
same,MCV,[5],62.9 fL
same,Mono,[5],1.8%
same,Neu,[5],15.2%
same,PT,[5],16.9 s
same,Plat,[5],125.7 x10_4/uL
same,RBC,[5],615.2 x10_4/ul
same,Ret,[5],8.6%
same,WBC,[5],103.8 x10_2/uL
same,KIDNEY_L,[5],1 g
same,KIDNEY_R,[5],1 g
same,KIDNEY_TOTAL,[5],1.9 g
same,LIVER,[5],9.5 g
same,ALP,[5],1893.6 IU/L
same,AST,[5],73.6 IU/L
same,BUN,[5],11.6 mg/dL
same,CRE,[5],0.1 mg/dL
same,Ca,[5],10.8 mg/dL
same,Cl,[5],104.6 meq/L
same,DBIL,[5],0 mg/dL
same,GLC,[5],190.8 mg/dL
same,IP,[5],9.2 mg/dL
same,LDH,[5],182.4 IU/L
same,Na,[5],140.4 meq/L
same,PL,[5],151.8 mg/dL
same,RALB,[5],2.9 g/dL
same,TBIL,[5],0.016 mg/dL
same,TC,[5],85 mg/dL
same,TG,[5],59.4 mg/dL
same,TP,[5],5.3 g/dL
same,gamma-GTP,[5],1 IU/L
same,TERMINAL_BW,[6],197.9 g
same,APTT,[6],21.5 s
same,Bas,[6],0%
same,Eos,[6],0.6%
same,Fbg,[6],290.8 mg/dL
same,Hb,[6],13.4 g/dL
same,Ht,[6],39.8%
same,Lym,[6],80.4%
same,MCH,[6],21.4 pg
same,MCV,[6],63.6 fL
same,Mono,[6],2%
same,Neu,[6],15%
same,PT,[6],16.6 s
same,Plat,[6],127.9 x10_4/uL
same,RBC,[6],625.8 x10_4/ul
same,Ret,[6],7.5%
same,WBC,[6],69 x10_2/uL
same,KIDNEY_L,[6],0.9 g
same,KIDNEY_R,[6],0.9 g
same,KIDNEY_TOTAL,[6],1.8 g
same,LIVER,[6],8.7 g
same,ALP,[6],1551.6 IU/L
same,AST,[6],68.8 IU/L
same,BUN,[6],8.8 mg/dL
same,CRE,[6],0.2 mg/dL
same,Ca,[6],10.9 mg/dL
same,Cl,[6],105.2 meq/L
same,DBIL,[6],0 mg/dL
same,GLC,[6],191.2 mg/dL
same,IP,[6],9.9 mg/dL
same,LDH,[6],257.2 IU/L
same,Na,[6],141.4 meq/L
same,PL,[6],142.8 mg/dL
same,RALB,[6],3 g/dL
same,TBIL,[6],0.02 mg/dL
same,TC,[6],74.2 mg/dL
same,TG,[6],94.2 mg/dL
same,TP,[6],5.4 g/dL
same,gamma-GTP,[6],1 IU/L
same,TERMINAL_BW,[7],199.2 g
same,APTT,[7],20.8 s
same,Bas,[7],0%
same,Eos,[7],1%
same,Fbg,[7],298 mg/dL
same,Ht,[7],38.7%
same,Lym,[7],80.6%
same,MCH,[7],21.2 pg
same,MCV,[7],62.9 fL
same,Mono,[7],1.6%
same,Neu,[7],15.8%
same,PT,[7],16.9 s
same,Plat,[7],124.7 x10_4/uL
same,RBC,[7],615.4 x10_4/ul
same,Ret,[7],8.1%
same,WBC,[7],80.7 x10_2/uL
same,KIDNEY_L,[7],0.9 g
same,KIDNEY_R,[7],0.9 g
same,KIDNEY_TOTAL,[7],1.8 g
same,LIVER,[7],8.1 g
same,ALP,[7],1393.4 IU/L
same,AST,[7],63.2 IU/L
same,BUN,[7],7.4 mg/dL
same,CRE,[7],0.2 mg/dL
same,Ca,[7],10.7 mg/dL
same,Cl,[7],106 meq/L
same,DBIL,[7],0 mg/dL
same,GLC,[7],198 mg/dL
same,IP,[7],9.3 mg/dL
same,LDH,[7],179 IU/L
same,Na,[7],142.2 meq/L
same,PL,[7],137.4 mg/dL
same,RALB,[7],2.9 g/dL
same,TBIL,[7],0.02 mg/dL
same,TC,[7],73.4 mg/dL
same,TG,[7],55.2 mg/dL
same,TP,[7],5.3 g/dL
same,gamma-GTP,[7],1.2 IU/L
same,TERMINAL_BW,[8],216.3 g
same,APTT,[8],21.5 s
same,Bas,[8],0%
same,Eos,[8],0.4%
same,Fbg,[8],304.2 mg/dL
same,Hb,[8],13.3 g/dL
same,Ht,[8],39.9%
same,Lym,[8],74.8%
same,MCH,[8],21.4 pg
same,MCHC,[8],33.2%
same,MCV,[8],64.4 fL
same,Mono,[8],2%
same,Neu,[8],21.4%
same,PT,[8],16.4 s
same,Plat,[8],127 x10_4/uL
same,RBC,[8],621 x10_4/ul
same,Ret,[8],8%
same,WBC,[8],71.7 x10_2/uL
same,KIDNEY_L,[8],1 g
same,KIDNEY_R,[8],1 g
same,KIDNEY_TOTAL,[8],2 g
same,LIVER,[8],11 g
same,ALP,[8],1882.6 IU/L
same,ALT,[8],55.8 IU/L
same,AST,[8],89.8 IU/L
same,BUN,[8],15.8 mg/dL
same,CRE,[8],0.2 mg/dL
same,Ca,[8],10.7 mg/dL
same,Cl,[8],105.4 meq/L
same,DBIL,[8],0 mg/dL
same,GLC,[8],180.4 mg/dL
same,IP,[8],8.4 mg/dL
same,LDH,[8],226.4 IU/L
same,Na,[8],142.2 meq/L
same,PL,[8],147 mg/dL
same,RALB,[8],2.9 g/dL
same,TBIL,[8],0.004 mg/dL
same,TC,[8],79.4 mg/dL
same,TG,[8],88.6 mg/dL
same,TP,[8],5.4 g/dL
same,gamma-GTP,[8],1 IU/L
